According to ChEMBL document CHEMBL1201862, “PubChem BioAssay data set” (2004):
Active and inactive are the calls of the source.

Key:
H4 = assay: Luminescence Cell-Based Dose Response HTS to Identify Activators of 5'UTR Stem-Loop Driven Prion Protein mRNA Translation in H4 Neuroglioblastoma Cells. [Related pubchem assays: 1829 (Project Summary), 1814 (Primary HTS)]; format: functional; conditions: Homo sapiens
[1] = NIH3T3 cell viability loss – ATP luminescence, mouse fibroblasts, counter-screen, dose response (AID 2010); format: functional, cell-based;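 also: cells exposed to compound for about 90 hours before reading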
[2] = biological target: T1, Replicative DNA helicase DnaB (Mycobacterium tuberculosis, UniProt P9WMR3); assay: DnaB intein splicing inhibitors, dose response, biochemical, cell-free fluorescence (AID 449749); format: functional
T1 sequence (P9WMR3 whole entry): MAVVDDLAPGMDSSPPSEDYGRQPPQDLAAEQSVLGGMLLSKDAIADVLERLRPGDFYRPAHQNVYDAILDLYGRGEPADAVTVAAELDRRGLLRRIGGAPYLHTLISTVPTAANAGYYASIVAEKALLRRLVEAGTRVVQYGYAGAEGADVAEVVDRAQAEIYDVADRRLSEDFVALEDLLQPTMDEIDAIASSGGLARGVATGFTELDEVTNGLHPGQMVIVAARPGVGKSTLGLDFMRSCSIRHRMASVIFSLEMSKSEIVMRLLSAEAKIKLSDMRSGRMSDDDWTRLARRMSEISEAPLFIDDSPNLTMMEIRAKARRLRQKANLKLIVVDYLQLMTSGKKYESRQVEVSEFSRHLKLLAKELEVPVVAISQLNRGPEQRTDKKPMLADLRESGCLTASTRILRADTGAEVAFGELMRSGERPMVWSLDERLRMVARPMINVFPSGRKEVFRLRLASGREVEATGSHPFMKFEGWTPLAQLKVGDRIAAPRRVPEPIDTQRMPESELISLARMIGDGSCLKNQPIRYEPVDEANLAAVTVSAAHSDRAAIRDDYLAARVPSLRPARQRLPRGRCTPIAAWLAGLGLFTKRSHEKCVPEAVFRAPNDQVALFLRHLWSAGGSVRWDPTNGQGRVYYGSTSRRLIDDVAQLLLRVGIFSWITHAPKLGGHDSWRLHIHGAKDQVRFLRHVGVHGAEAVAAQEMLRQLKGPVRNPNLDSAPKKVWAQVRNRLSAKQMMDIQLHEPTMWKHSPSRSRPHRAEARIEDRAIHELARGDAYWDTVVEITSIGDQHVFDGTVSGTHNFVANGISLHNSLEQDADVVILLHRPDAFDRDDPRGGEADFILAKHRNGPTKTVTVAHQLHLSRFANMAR

[3] = Trypanosoma cruzi growth suppression in host cells – NIH3T3 host cells, beta-gal luminescence, confirmation (AID 2044); format: functional, cell-based;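 also: intracellular parasites grown in NIH/3T3 mouse fibroblasts as host cells; luminescent beta-galactosidase reporter signal from transgenic T. cruzi replicating inside host cells; inhibitors lower the luminescence signal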
[4] = biological target: T2, Mannose-6-phosphate isomerase (Homo sapiens, UniProt P34949); assay: MPI inhibition at elevated mannose 6-phosphate – biochemical, fluorescence intensity, high mannose 6-phosphate, primary screen (AID 1220)
T2 sequence (P34949 whole entry): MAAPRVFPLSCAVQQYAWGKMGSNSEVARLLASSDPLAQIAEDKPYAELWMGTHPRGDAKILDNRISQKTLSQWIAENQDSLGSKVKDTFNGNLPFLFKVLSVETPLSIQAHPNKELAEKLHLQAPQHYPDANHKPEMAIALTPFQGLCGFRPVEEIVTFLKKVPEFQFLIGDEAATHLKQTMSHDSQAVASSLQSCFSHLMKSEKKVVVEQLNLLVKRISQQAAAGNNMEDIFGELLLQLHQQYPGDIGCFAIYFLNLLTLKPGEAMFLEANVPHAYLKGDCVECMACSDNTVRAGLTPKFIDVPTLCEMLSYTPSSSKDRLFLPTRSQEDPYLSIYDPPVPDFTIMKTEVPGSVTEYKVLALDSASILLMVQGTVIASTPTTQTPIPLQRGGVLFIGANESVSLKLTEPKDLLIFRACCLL

[5] = Luminescent dose response cell-based high throughput screening assay for inhibitors of the Janus kinase 2 mutant JAK2V617F. [Related pubchem assays: 1446 (Primary screen.), 1521 (Confirmation assay.), 1486 (Counter screen.)]; format: functional
[6] = biological target: T3, Tyrosine-protein phosphatase non-receptor type 22 (Homo sapiens, UniProt Q9Y2R2); assay: LYP1 Fluorescent Assay using OMFP substrate for In Vitro dose response studies. [Related pubchem assays (depositor defined):AID1779, AID1784, AID435024]
T3 sequence (Q9Y2R2 whole entry): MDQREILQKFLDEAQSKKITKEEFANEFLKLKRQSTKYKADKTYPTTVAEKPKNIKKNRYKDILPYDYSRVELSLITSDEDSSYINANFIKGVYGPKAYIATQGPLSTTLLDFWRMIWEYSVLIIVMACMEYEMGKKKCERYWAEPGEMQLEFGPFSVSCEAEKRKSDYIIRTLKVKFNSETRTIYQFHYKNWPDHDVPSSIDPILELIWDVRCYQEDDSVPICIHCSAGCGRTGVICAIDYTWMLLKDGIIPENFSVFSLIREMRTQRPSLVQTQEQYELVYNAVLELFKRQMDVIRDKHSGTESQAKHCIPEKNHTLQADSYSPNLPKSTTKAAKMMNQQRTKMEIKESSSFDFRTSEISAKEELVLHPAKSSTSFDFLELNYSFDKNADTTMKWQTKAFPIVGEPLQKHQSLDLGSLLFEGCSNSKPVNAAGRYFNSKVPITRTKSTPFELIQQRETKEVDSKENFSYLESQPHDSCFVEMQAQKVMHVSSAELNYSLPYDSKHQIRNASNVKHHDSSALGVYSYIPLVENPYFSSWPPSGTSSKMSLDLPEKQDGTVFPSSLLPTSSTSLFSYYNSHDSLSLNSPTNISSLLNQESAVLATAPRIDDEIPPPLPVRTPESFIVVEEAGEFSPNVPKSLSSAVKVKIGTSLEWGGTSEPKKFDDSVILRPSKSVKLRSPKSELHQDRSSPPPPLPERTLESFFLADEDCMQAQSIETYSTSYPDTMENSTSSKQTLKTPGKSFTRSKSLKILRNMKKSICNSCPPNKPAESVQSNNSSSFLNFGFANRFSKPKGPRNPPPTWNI

[7] = biological target: T4, Tyrosine-protein phosphatase non-receptor type 7 (Homo sapiens, UniProt P35236); format: functional
T4 sequence (P35236 whole entry): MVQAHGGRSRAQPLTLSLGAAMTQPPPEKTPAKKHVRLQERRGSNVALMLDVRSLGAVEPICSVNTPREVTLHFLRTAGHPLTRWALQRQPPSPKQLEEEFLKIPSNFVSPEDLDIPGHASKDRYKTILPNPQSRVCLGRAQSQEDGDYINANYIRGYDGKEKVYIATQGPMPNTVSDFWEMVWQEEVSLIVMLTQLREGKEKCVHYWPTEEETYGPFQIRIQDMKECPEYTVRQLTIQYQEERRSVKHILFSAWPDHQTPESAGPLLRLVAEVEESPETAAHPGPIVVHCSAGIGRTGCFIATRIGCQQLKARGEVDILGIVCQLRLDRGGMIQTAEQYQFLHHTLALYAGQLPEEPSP

[8] = biological target: T3, Tyrosine-protein phosphatase non-receptor type 22; assay: SAR LYP1 Fluorescent Assay using pCAP substrate for In Vitro dose response studies - Set 2. [Related pubchem assays (depositor defined):AID1779, AID1784, AID2135, AID449727]; format: functional

Compound | EC50 (H4) | EC50 [1] | AC50 [2] | EC50 [3] | IC50 [4] | IC50 [5] | IC50 [6] | IC50 [7] | IC50 [8]
COc1ccc(Nc2ccc3c(c2)=NC2(CCCCC2)[N+]=3[O-])cc1 | 79.5 µM (active) | 9.19 µM (active) | 9.3 µM (active) | 3.4 µM (active) | > 50 µM (not active) | 0.824 µM (active) | – | – | –
COc1ccc(/C=C2\SC(=S)N(CCC(=O)Nc3ccc(C(=O)O)cc3)C2=O)cc1OC | – | – | – | – | – | – | 4.66 µM (active) | 3.78 µM (active) | 1.38 µM (active)
